Reference: patent publication US20070196902A1, “Method of detecting AZT resistance in HIV” (University of Pittsburgh, priority 2006, published 2007)

How the values were obtained:
Assay in all cases: Drug susceptibility assay in P4/R5 cells, site-directed mutant
Type in all cases: cell-based, HIV-1
[1] = system: HIVLAI RT 67N/70R/215F/371V
Protocol: (§1) Drug susceptibility assays. NRTI susceptibility was determined in P4/R5 cells as described previously (Parikh, U. M., et al. 2005. Antimicrob. Agents Chemother. 49:1139-44). Briefly, threefold dilutions of inhibitor were added to P4/R5 cells in triplicate and cells were infected with an amount of virus that produced 100 relative units of light (RLU) in no drug, virus control wells. After 48 hours, the cells were lysed (Gal-Screen; Tropix/Applied Biosystems, Foster City, Calif.) and the RLU was measured using a ThermoLabSystems luminometer (Waltham, Mass.). The IC50 and fold-resistance were calculated as described above. IC50 values from at least three independent experiments were log10 transformed and compared for statistically significant differences using the two-sample Student's t test.
(§2) Construction of mutant recombinant HIV-1. Mutant recombinant plasmid clones of virus were generated by oligonucleotide site-directed mutagenesis as described previously (Shi, C., and J. W. Mellors. 1997. A recombinant retroviral system for rapid […] analysis of human immunodeficiency virus type 1 susceptibility to reverse transcriptase inhibitors. Antimicrob. Agents Chemother. 41:2781-5), using the p6HRT-MO plasmid. p6HRT-MO contains the entire RT and protease coding sequence as previously described (Le Grice, S. F., and F. Gruninger-Leitch. 1990. Rapid purification of homodimer and heterodimer HIV-1 reverse transcriptase by metal chelate affinity chromatography. Eur. J. Biochem. 187:307-14) and four silent restriction sites (Xma I, Mlu I, Xba I, and NgoM IV from the 5′ to 3′ end of RT at codons 14, 358, 490 and 554, respectively). After site-directed mutagenesis (QIAamp kit, QIAGEN, Valencia, Calif.), the mutated RT was ligated into pxxHIV-1LAI MO that contains the entire genome of HIV-1LAI and the same silent restriction sites as p6HRT-MO. Infectious virus was generated by electroporating the mutated xxHIV-1LAI MO plasmid into MT-2 cells as described above. All mutations in recombinant viruses were confirmed by full-length sequencing of the entire RT coding region.

[2] = system: HIVLAI RT 67N/70R/215I/371V
Protocol: as §1, §2

HIVLAI RT 67N/70R/215I = system: HIVLAI RT 67N/70R/215I
Protocol: as §1, §2

HIVLAI RT 67N/70R/371V = system: HIVLAI RT 67N/70R/371V
Protocol: as §1, §2

HIVLAI RT A371V/Q509L = system: HIVLAI RT A371V/Q509L
Protocol: as §1, §2

HIVLAI RT A371V = system: HIVLAI RT A371V
Protocol: as §1, §2

[3] = system: HIVLAI RT D67N/K70R/A371V/Q509L
Protocol: as §1, §2

[4] = system: HIVLAI RT D67N/K70R/T215F/A371V/Q509L
Protocol: as §1, §2

[5] = system: HIVLAI RT D67N/K70R/T215F
Protocol: as §1, §2

HIVLAI RT D67N/K70R = system: HIVLAI RT D67N/K70R
Protocol: as §1, §2

HIVLAI RT Q509L = system: HIVLAI RT Q509L
Protocol: as §1, §2

Cc1cn([C@H]2C[C@H](N=[N+]=[N-])[C@@H](CO)O2)c(=O)[nH]c1=O [AZT, 3′-azido-3′-dideoxythymidine]
Fold-Resistance ([1]; 67N/70R/215F/371V compared to wild-type): 22 fold | IC50 ([1]; Human immunodeficiency virus 1, P4/R5, 67N/70R/215F/371V, mean ± SD): 4900 ± 2900 nM | Fold-Resistance ([2]; 67N/70R/215I/371V compared to wild-type): 2.6 fold | IC50 ([2]; Human immunodeficiency virus 1, P4/R5, 67N/70R/215I/371V, mean ± SD): 600 ± 300 nM | Fold-Resistance (HIVLAI RT 67N/70R/215I; 67N/70R/215I compared to wild-type): 1.3 fold | IC50 (HIVLAI RT 67N/70R/215I; Human immunodeficiency virus 1, P4/R5, 67N/70R/215I, mean ± SD): 300 ± 200 nM | Fold-Resistance (HIVLAI RT 67N/70R/371V; 67N/70R/371V compared to wild-type): 6.4 fold | IC50 (HIVLAI RT 67N/70R/371V; Human immunodeficiency virus 1, P4/R5, 67N/70R/371V, mean ± SD): 1400 ± 500 nM | Fold-Resistance (HIVLAI RT A371V/Q509L; A371V/Q509L compared to wild-type): 1.7 fold | IC50 (HIVLAI RT A371V/Q509L; Human immunodeficiency virus 1, P4/R5, A371V/Q509L, mean ± SD): 300 ± 60 nM | Fold-Resistance (HIVLAI RT A371V; A371V compared to wild-type): 0.7 fold | IC50 (HIVLAI RT A371V; Human immunodeficiency virus 1, P4/R5, A371V, mean ± SD): 200 ± 40 nM | Fold-Resistance ([3]; 67N/70R/371V/509L compared to wild-type): 39 fold | IC50 ([3]; Human immunodeficiency virus 1, P4/R5, 67N/70R/371V/509L, mean ± SD): 9100 ± 5200 nM | Fold-Resistance ([4]; 67N/70R/215F/371V/509L compared to wild-type): 934 fold | IC50 ([4]; Human immunodeficiency virus 1, P4/R5, 67N/70R/215F/371V/509L, mean ± SD): 203000 ± 40000 nM | Fold-Resistance ([5]; 67N/70R/215F compared to wild-type): 18 fold | IC50 ([5]; Human immunodeficiency virus 1, P4/R5, 67N/70R/215F, mean ± SD): 3800 ± 2100 nM | Fold-Resistance (HIVLAI RT D67N/K70R; 67N/70R compared to wild-type): 4.6 fold | IC50 (HIVLAI RT D67N/K70R; Human immunodeficiency virus 1, P4/R5, 67N/70R, mean ± SD): 1100 ± 600 nM | IC50 (HIVLAI RT Q509L; Human immunodeficiency virus 1, P4/R5, Q509L, mean ± SD): 300 ± 200 nM | Fold-Resistance (HIVLAI RT Q509L; Q509L compared to wild-type): 1.3 fold
